Results from patent US11040031B2, “Pyrazole derivatives as MALT1 inhibitors” (Janssen Pharmaceutica NV, priority 2018, dated 2021).

system: Secretion of IL10 by OCI-LY3 ABC-DLBCL cells; test: Human IL10 Mesoscale assay (OCI-LY3); assay type: cell-based; settings: OCI-LY3 cells, 24 h incubation, supernatant, MSD V-Plex, read-out: Human IL10 Mesoscale assay (OCI-LY3)
Method: NFKB signaling regulates the secretion of multiple cytokines, including IL6 and IL10. Secretion of the cytokines IL6 and IL10 by TMD8 or OCI-LY3 ABC-DLBCL cells was measured using a mesoscale assay.
Cell passage number should not exceed 30. Cells should be kept between 0.5-2.5 million cells per mL during culturing and cells should be supplemented every 2-3 days with fresh 50 µM beta-mercaptoenthanol. No beta-mercaptoethanol was used during the mesoscale assay.
DMSO control wells were used to determine the maximum signal (High Control (HC)). […] Compounds and cells were incubated for 24 h at 37° C. and 5% CO2 (assay volume is 150 μL). After 24 h of incubation 50 μL of the supernatant was transferred to a MSD plate (V-Plex Proinflammation Panel 1 (human) kit, Mesoscale (MSD)) and incubated for 2 h with vigorous shaking (600 rpm) at room temperature. Following incubation, plates were washed 3× with PBS+0.05% Tween-20 and 25 μL detection antibody solution (IL6 & IL10 antibodies in diluent 3 (MSD)) was added per well followed by 2 h of incubation with vigorous shaking (600 rpm) at room temperature. After 3× washes with PBS+0.05% Tween-20, plates were incubated with 150 μL 2× Read Buffer T and read on SECTOR imager.

For Cc1c(-n2ncc(C(=O)Nc3cnc(-n4nccn4)c(Cl)c3)c2C(F)(F)F)ccc(F)c1F [Cpd 174, N-(5-chloro-6-(2H-1,2,3-triazol-2-yl)pyridin-3-yl)-1-(3,4-difluoro-2-methylphenyl)-5-(trifluoromethyl)-1H-pyrazole-4-carboxamide], the IC50 was 83 nM.

target: T1, full-length MALT1 protein (Strep-MALT1(1-824)-His) (Homo sapiens, UniProt Q9UDY8); test: biochemical; settings: not given;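 further: fluorogenic LRSR-AMC substrate cleavage by MALT1, 50 min compound preincubation then 4 h reaction at RT, 11-point dilution from 30 µM, scaled between enzyme-free and untreated enzyme controls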
T1 sequence (Q9UDY8 1-824): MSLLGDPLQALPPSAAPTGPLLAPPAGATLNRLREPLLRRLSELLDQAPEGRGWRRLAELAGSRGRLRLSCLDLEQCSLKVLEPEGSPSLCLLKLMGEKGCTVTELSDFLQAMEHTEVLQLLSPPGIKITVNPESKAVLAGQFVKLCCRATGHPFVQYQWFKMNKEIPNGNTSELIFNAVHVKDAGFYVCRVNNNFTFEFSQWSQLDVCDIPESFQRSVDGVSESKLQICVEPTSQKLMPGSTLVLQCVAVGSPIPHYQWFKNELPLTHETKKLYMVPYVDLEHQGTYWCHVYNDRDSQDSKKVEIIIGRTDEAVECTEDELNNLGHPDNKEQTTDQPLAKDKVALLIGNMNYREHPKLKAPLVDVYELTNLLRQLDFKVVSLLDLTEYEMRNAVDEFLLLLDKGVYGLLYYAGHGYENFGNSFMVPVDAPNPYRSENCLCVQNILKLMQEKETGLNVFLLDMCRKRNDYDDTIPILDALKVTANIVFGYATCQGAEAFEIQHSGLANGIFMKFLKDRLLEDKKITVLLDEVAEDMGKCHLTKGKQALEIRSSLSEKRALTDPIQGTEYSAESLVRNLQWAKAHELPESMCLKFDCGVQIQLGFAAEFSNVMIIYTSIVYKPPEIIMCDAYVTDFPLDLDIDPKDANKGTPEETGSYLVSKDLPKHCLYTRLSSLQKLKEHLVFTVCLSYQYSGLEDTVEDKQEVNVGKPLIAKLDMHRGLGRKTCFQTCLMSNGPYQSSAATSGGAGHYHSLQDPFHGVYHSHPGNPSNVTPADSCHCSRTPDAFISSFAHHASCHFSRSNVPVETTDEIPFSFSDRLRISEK

Compared with Cc1c(-n2ncc(C(=O)Nc3cnc(-n4nccn4)c(Cl)c3)c2C(F)(F)F)ccc(F)c1F [Cpd 174, N-(5-chloro-6-(2H-1,2,3-triazol-2-yl)pyridin-3-yl)-1-(3,4-difluoro-2-methylphenyl)-5-(trifluoromethyl)-1H-pyrazole-4-carboxamide], O=C(Nc1cnc(-n2nccn2)c(Cl)c1)c1cnn(-c2ccc(F)c(F)c2F)c1C(F)(F)F [Cpd 89, N-(5-chloro-6-(2H-1,2,3-triazol-2-yl)pyridin-3-yl)-5-(trifluoromethyl)-1-(2,3,4-trifluorophenyl)-1H-pyrazole-4-carboxamide] is 3.8-fold higher in IC50: 170 nM for the first, 646 nM for the second. The first is the more potent here.

Compared with COc1ccnc(-n2ncc(C(=O)Nc3cnc(-n4nccn4)c(C#N)c3)c2C(F)(F)F)c1Cl [Cpd 66, 1-(3-chloro-4-methoxypyridin-2-yl)-N-(5-cyano-6-(2H-1,2,3-triazol-2-yl)pyridin-3-yl)-5-(trifluoromethyl)-1H-pyrazole-4-carboxamide], Cc1ncccc1-n1ncc(C(=O)Nc2cnc(-n3nccn3)c(C#N)c2)c1C(F)(F)F [Cpd 88, N-(5-cyano-6-(2H-1,2,3-triazol-2-yl)pyridin-3-yl)-1-(2-methylpyridin-3-yl)-5-(trifluoromethyl)-1H-pyrazole-4-carboxamide] is 5-fold lower in IC50: 3980 nM for the first, 794 nM for the second.

Going from Cc1cc(N)ncc1-n1ncc(C(=O)Nc2cnc(-n3nccn3)c(Cl)c2)c1C(F)(F)F [Cpd 191, 1-(6-amino-4-methylpyridin-3-yl)-N-(5-chloro-6-(2H-1,2,3-triazol-2-yl)pyridin-3-yl)-5-(trifluoromethyl)-1H-pyrazole-4-carboxamide] to Cc1cc(N)ncc1-n1ncc(C(=O)Nc2cnc(-n3nccn3)c(C#N)c2)c1C(F)(F)F [Cpd 190, 1-(6-amino-4-methylpyridin-3-yl)-N-(5-cyano-6-(2H-1,2,3-triazol-2-yl)pyridin-3-yl)-5-(trifluoromethyl)-1H-pyrazole-4-carboxamide], the IC50 falls from 724 nM to 447 nM (1.6-fold). The second is the more potent here.

Going from Cc1cnc(N2CC(O)C2)cc1-n1ncc(C(=O)Nc2cnc(-n3nccn3)c(Cl)c2)c1C(F)(F)F [Cpd 156, N-(5-chloro-6-(2H-1,2,3-triazol-2-yl)pyridin-3-yl)-1-(2-(3-hydroxyazetidin-1-yl)-5-methylpyridin-4-yl)-5-(trifluoromethyl)-1H-pyrazole-4-carboxamide] to Cc1cnc([C@H]2CCCO2)cc1-n1ncc(C(=O)Nc2cnc(-n3nccn3)c(Cl)c2)c1C(F)(F)F (single isomer, unassigned) [Cpd 203, (*R)—N-(5-chloro-6-(2H-1,2,3-triazol-2-yl)pyridin-3-yl)-1-(5-methyl-2-(tetrahydrofuran-2-yl)pyridin-4-yl)-5-(trifluoromethyl)-1H-pyrazole-4-carboxamide], the IC50 falls from 1290 nM to 158 nM (8.2-fold).

Compared with N#Cc1cc(F)ccc1-n1ncc(C(=O)Nc2cnc(-n3nccn3)c(C#N)c2)c1C(F)(F)F [Cpd 135, 1-(2-cyano-4-fluorophenyl)-N-(5-cyano-6-(2H-1,2,3-triazol-2-yl)pyridin-3-yl)-5-(trifluoromethyl)-1H-pyrazole-4-carboxamide], N#Cc1cc(-n2ncc(C(=O)Nc3cnc(-n4nccn4)c(C#N)c3)c2C(F)(F)F)ccc1F [Cpd 86, 1-(3-cyano-4-fluorophenyl)-N-(5-cyano-6-(2H-1,2,3-triazol-2-yl)pyridin-3-yl)-5-(trifluoromethyl)-1H-pyrazole-4-carboxamide] is 3-fold higher in IC50: 525 nM for the first, 1550 nM for the second. The first is the more potent here.

Going from O=C(Nc1cnc(-n2nccn2)c(Cl)c1)c1cnn(-c2ccc(F)c(N3CC(O)C3)n2)c1C(F)(F)F [Cpd 151, N-(5-chloro-6-(2H-1,2,3-triazol-2-yl)pyridin-3-yl)-1-(5-fluoro-6-(3-hydroxyazetidin-1-yl)pyridin-2-yl)-5-(trifluoromethyl)-1H-pyrazole-4-carboxamide] to Cc1nc(-n2ncc(C(=O)Nc3cnc(-n4nccn4)c(Cl)c3)c2C(F)(F)F)ccc1F [Cpd 161, N-(5-chloro-6-(2H-1,2,3-triazol-2-yl)pyridin-3-yl)-1-(5-fluoro-6-methylpyridin-2-yl)-5-(trifluoromethyl)-1H-pyrazole-4-carboxamide], the IC50 falls from 2400 nM to 741 nM (3.2-fold). The second is the more potent here.

Going from O=C(Nc1cnc(-n2nccn2)c(Cl)c1)c1cnn(-c2cnccn2)c1C(F)(F)F [Cpd 9, N-(5-Chloro-6-(2H-1,2,3-triazol-2-yl)pyridin-3-yl)-1-(pyrazin-2-yl)-5-(trifluoromethyl)-1H-pyrazole-4-carboxamide] to N#Cc1ccc(-n2ncc(C(=O)Nc3cnc(-n4nccn4)c(Cl)c3)c2C(F)(F)F)nc1 [Cpd 11, N-(5-Chloro-6-(2H-1,2,3-triazol-2-yl)pyridin-3-yl)-1-(5-cyanopyridin-2-yl)-5-(trifluoromethyl)-1H-pyrazole-4-carboxamide], the IC50 rises from 2570 nM to 4570 nM (1.8-fold).

Compared with Cc1cnc([C@@H]2COCCO2)cc1-n1ncc(C(=O)Nc2cnc(-n3nccn3)c(Cl)c2)c1C(F)(F)F (single isomer, unassigned) [Cpd 206, (*R)-1-(2-(1,4-dioxan-2-yl)-5-methylpyridin-4-yl)-N-(5-chloro-6-(2H-1,2,3-triazol-2-yl)pyridin-3-yl)-5-(trifluoromethyl)-1H-pyrazole-4-carboxamide], Cc1ccc(-n2ncc(C(=O)Nc3cnc(-n4nccn4)c(Cl)c3)c2C(F)(F)F)nc1N [Cpd 184, 1-(6-amino-5-methylpyridin-2-yl)-N-(5-chloro-6-(2H-1,2,3-triazol-2-yl)pyridin-3-yl)-5-(trifluoromethyl)-1H-pyrazole-4-carboxamide] is 6.2-fold lower in IC50: 2040 nM for the first, 331 nM for the second. The second is the more potent here.

Compared with N#Cc1cc(NC(=O)c2cnn(-c3nc(N)ccc3C(F)(F)F)c2C(F)(F)F)cnc1-n1nccn1 [Cpd 187, 1-(6-amino-3-(trifluoromethyl)pyridin-2-yl)-N-(5-cyano-6-(2H-1,2,3-triazol-2-yl)pyridin-3-yl)-5-(trifluoromethyl)-1H-pyrazole-4-carboxamide], N#Cc1cc(NC(=O)c2cnn(-c3nc(Cl)ccc3C(F)(F)F)c2C(F)(F)F)cnc1-n1nccn1 [Cpd 164, 1-(6-chloro-3-(trifluoromethyl)pyridin-2-yl)-N-(5-cyano-6-(2H-1,2,3-triazol-2-yl)pyridin-3-yl)-5-(trifluoromethyl)-1H-pyrazole-4-carboxamide] is 3.7-fold higher in IC50: 380 nM for the first, 1410 nM for the second. The first is the more potent here.

Going from N#Cc1cncc(-n2ncc(C(=O)Nc3cnc(-n4nccn4)c(Cl)c3)c2C(F)(F)F)c1 [Cpd 17, N-(5-Chloro-6-(2H-1,2,3-triazol-2-yl)pyridin-3-yl)-1-(5-cyanopyridin-3-yl)-5-(trifluoromethyl)-1H-pyrazole-4-carboxamide] to CNc1ccc(-n2ncc(C(=O)Nc3cnc(-n4nccn4)c(Cl)c3)c2C(F)(F)F)cn1 [Cpd 122, N-(5-chloro-6-(2H-1,2,3-triazol-2-yl)pyridin-3-yl)-1-(6-(methylamino)pyridin-3-yl)-5-(trifluoromethyl)-1H-pyrazole-4-carboxamide], the IC50 falls from 2090 nM to 1320 nM (1.6-fold). The second is the more potent here.

Compared with COC(C)c1ccccc1-n1ncc(C(=O)Nc2cnc(-n3nccn3)c(Cl)c2)c1C(F)(F)F (stereo not shown) [Cpd 118, N-(5-Chloro-6-(2H-1,2,3-triazol-2-yl)pyridin-3-yl)-1-(2-(1-methoxyethyl)phenyl)-5-(trifluoromethyl)-1H-pyrazole-4-carboxamide], O=C(Nc1cnc(-n2nccn2)c(Cl)c1)c1cnn(-c2ccc(F)c(F)c2)c1C(F)(F)F [Cpd 78, N-(5-chloro-6-(2H-1,2,3-triazol-2-yl)pyridin-3-yl)-1-(3,4-difluorophenyl)-5-(trifluoromethyl)-1H-pyrazole-4-carboxamide] is 4.6-fold lower in IC50: 2950 nM for the first, 646 nM for the second. The second is the more potent here.

N#Cc1cnccc1-n1ncc(C(=O)Nc2cnc(-n3nccn3)c(C#N)c2)c1C(F)(F)F [Cpd 46, N-(5-cyano-6-(2H-1,2,3-triazol-2-yl)pyridin-3-yl)-1-(3-cyanopyridin-4-yl)-5-(trifluoromethyl)-1H-pyrazole-4-carboxamide] and Cc1c(F)ccc(-n2ncc(C(=O)Nc3cnc(-n4nccn4)c(C#N)c3)c2C(F)(F)F)c1Cl [Cpd 72, 1-(2-chloro-4-fluoro-3-methylphenyl)-N-(5-cyano-6-(2H-1,2,3-triazol-2-yl)pyridin-3-yl)-5-(trifluoromethyl)-1H-pyrazole-4-carboxamide] are within 1.5-fold of each other in IC50: 479 nM for the first, 603 nM for the second.
